{"source": "patent US20240069010A1", "about": "“TISSUE ORGANOID BIOPRINTING AND HIGH-THROUGHPUT SCREENING METHODOLOGY” (priority 2020, published 2024)", "key": {"[1]": {"details": "in vivo; cited from earlier work"}, "BT-474 organoids": {"system": "BT-474 organoids", "assay": "HSLCI mass tracking of bioprinted organoids in drug screening", "assay_type": "cell-based", "details": "for Organoid Behavior (%) Lost Mass: mass loss >10%; for Organoid Behavior (%) Stable: mass change <10%; for Organoid Behavior (%) Gained Mass: mass increase >10%"}, "MCF-7 organoids": {"system": "MCF-7 organoids", "assay": "Endpoint ATP-release assay (CellTiter-Glo) of organoid viability", "assay_type": "cell-based", "details": "Homo sapiens, MCF7", "procedure": "All drug treatments of 3D organoids were performed in serum-free conditions in MammoCult™ medium supplemented with 1% antibiotic-antimycotic (Gibco 15240-062). A detailed protocol for the drug screening has been published previously in Phan, N. et al. supra; and Nguyen, H. T. L. & Soragni, supra. Briefly, the culture medium was fully removed three days after seeding and replaced with 100 μL of MammoCult™ medium containing the indicated treatments using an automated pipetting system (EpMotion® 96). After treatment, we transferred the organoids to the HSLCI for imaging. Organoids were imaged by HSLCI between 6 hours and 48 hours after treatment. After imaging, we performed an ATP assay to assess cell viability in accordance with the manufacturer's instructions. The media was aspirated from each well and replaced with 50 μL of 5 mg/mL Dispase (Thermo-Fisher) solution to digest the Matrigel. After a 25-minute incubation at 37° C., the plate was placed on an orbital shaker for 5 minutes at 80 RPM. We then added 30 μL of CellTiter-Glo® reagent (Promega), sealed the plate with film, covered the plate with foil to protect from light, shook the plate for 5 minutes at 80 RPM, and incubated at room temperature for an additional 20 minutes. We used a SpectraMax iD3 plate reader to measure luminescence. The program parameters for luminescence readings were 5 minutes of shaking prior to reading, reading all wavelengths, and integrating signal over 500 ms. Organoid viability within each well was calculated by dividing the luminescent signal from each well by the mean luminescence of the control (1% DMSO) wells. Two-tailed independent t-tests were performed to assess the statistical significance of the differences in organoid mass and cell viability. P-values less than 0.05 were deemed significant."}, "[2]": {"details": "MCF-7, 72 h of treatment, luminescence relative to 1% DMSO control, read-out: Organoid viability by endpoint ATP assay, Viability ± SD"}, "[3]": {"details": "listed as printed as 6 hours, relative to 1% DMSO, read-out: Comparisons of cell viability measures by ATP detection assay, Mean mass ± SD"}}, "note": "Read-outs that look alike come from different tables or passages of the source."}
{"molecule": "CS(=O)(=O)CCNCc1ccc(-c2ccc3ncnc(Nc4ccc(OCc5cccc(F)c5)c(Cl)c4)c3c2)o1", "note": "[Lapatinib, lapatinib]", "values": [{"measurement": "maximum plasma concentration reported", "setting": "[1]", "result": 4.2, "unit": "µM"}, {"measurement": "Mean mass of BT-474 organoids, Mean mass ± SD", "setting": "BT-474 organoids; 0.1 μM, 6 hours of treatment", "result": "1.84 ± 1.21", "unit": "ng"}, {"measurement": "Mean mass of BT-474 organoids, Mean mass ± SD", "setting": "BT-474 organoids; 0.1 μM, 48 hours of treatment", "result": "2.33 ± 1.58", "unit": "ng"}, {"measurement": "Mean mass of BT-474 organoids, Mean mass ± SD", "setting": "BT-474 organoids; 1 μM, 6 hours of treatment", "result": "1.58 ± 0.78", "unit": "ng"}, {"measurement": "Mean mass of BT-474 organoids, Mean mass ± SD", "setting": "BT-474 organoids; 1 μM, 48 hours of treatment", "result": "1.48 ± 0.66", "unit": "ng"}, {"measurement": "Mean mass of BT-474 organoids, Mean mass ± SD", "setting": "BT-474 organoids; 10 μM, 6 hours of treatment", "result": "1.74 ± 0.88", "unit": "ng"}, {"measurement": "Mean mass of BT-474 organoids, Mean mass ± SD", "setting": "BT-474 organoids; 10 μM, 48 hours of treatment", "result": "1.42 ± 0.75", "unit": "ng"}, {"measurement": "Mean mass of BT-474 organoids, Mean mass ± SD", "setting": "BT-474 organoids; 50 μM, 6 hours of treatment", "result": "1.58 ± 0.70", "unit": "ng"}, {"measurement": "Mean mass of BT-474 organoids, Mean mass ± SD", "setting": "BT-474 organoids; 50 μM, 48 hours of treatment", "result": "0.92 ± 0.48", "unit": "ng"}, {"measurement": "Organoid Behavior (%) Lost Mass", "setting": "BT-474 organoids; BT-474 organoids, 0.1 μM, 12 h", "result": 3.1, "unit": "%"}, {"measurement": "Organoid Behavior (%) Stable", "setting": "BT-474 organoids; BT-474 organoids, 0.1 μM, 24 h", "result": 45.6, "unit": "%"}, {"measurement": "Organoid Behavior (%) Gained Mass", "setting": "BT-474 organoids; BT-474 organoids, 0.1 μM, 24 h", "result": 49.1, "unit": "%"}, {"measurement": "Organoid Behavior (%) Lost Mass", "setting": "BT-474 organoids; BT-474 organoids, 0.1 μM, 24 h", "result": 5.3, "unit": "%"}, {"measurement": "Organoid Behavior (%) Stable", "setting": "BT-474 organoids; BT-474 organoids, 0.1 μM, 48 h", "result": 25.8, "unit": "%"}, {"measurement": "Organoid Behavior (%) Gained Mass", "setting": "BT-474 organoids; BT-474 organoids, 0.1 μM, 48 h", "result": 67.7, "unit": "%"}, {"measurement": "Organoid Behavior (%) Lost Mass", "setting": "BT-474 organoids; BT-474 organoids, 0.1 μM, 48 h", "result": 6.5, "unit": "%"}, {"measurement": "Organoid Behavior (%) Lost Mass", "setting": "BT-474 organoids; BT-474 organoids, 1 μM, 12 h", "result": 7.4, "unit": "%"}, {"measurement": "Organoid Behavior (%) Stable", "setting": "BT-474 organoids; BT-474 organoids, 1 μM, 24 h", "result": 54.2, "unit": "%"}, {"measurement": "Organoid Behavior (%) Gained Mass", "setting": "BT-474 organoids; BT-474 organoids, 1 μM, 24 h", "result": 20.3, "unit": "%"}, {"measurement": "Organoid Behavior (%) Lost Mass", "setting": "BT-474 organoids; BT-474 organoids, 1 μM, 24 h", "result": 25.4, "unit": "%"}, {"measurement": "Organoid Behavior (%) Stable", "setting": "BT-474 organoids; BT-474 organoids, 1 μM, 48 h", "result": 50.0, "unit": "%"}, {"measurement": "Organoid Behavior (%) Gained Mass", "setting": "BT-474 organoids; BT-474 organoids, 1 μM, 48 h", "result": 27.5, "unit": "%"}, {"measurement": "Organoid Behavior (%) Lost Mass", "setting": "BT-474 organoids; BT-474 organoids, 1 μM, 48 h", "result": 22.5, "unit": "%"}, {"measurement": "Organoid Behavior (%) Gained Mass", "setting": "BT-474 organoids; BT-474 organoids, 10 μM, 12 h", "result": 19.6, "unit": "%"}, {"measurement": "Organoid Behavior (%) Lost Mass", "setting": "BT-474 organoids; BT-474 organoids, 10 μM, 12 h", "result": 7.1, "unit": "%"}, {"measurement": "Organoid Behavior (%) Stable", "setting": "BT-474 organoids; BT-474 organoids, 10 μM, 24 h", "result": 60.3, "unit": "%"}, {"measurement": "Organoid Behavior (%) Gained Mass", "setting": "BT-474 organoids; BT-474 organoids, 10 μM, 24 h", "result": 9.5, "unit": "%"}, {"measurement": "Organoid Behavior (%) Lost Mass", "setting": "BT-474 organoids; BT-474 organoids, 10 μM, 24 h", "result": 30.2, "unit": "%"}, {"measurement": "Organoid Behavior (%) Stable", "setting": "BT-474 organoids; BT-474 organoids, 10 μM, 48 h", "result": 47.2, "unit": "%"}, {"measurement": "Organoid Behavior (%) Gained Mass", "setting": "BT-474 organoids; BT-474 organoids, 10 μM, 48 h", "result": 15.1, "unit": "%"}, {"measurement": "Organoid Behavior (%) Lost Mass", "setting": "BT-474 organoids; BT-474 organoids, 10 μM, 48 h", "result": 37.7, "unit": "%"}, {"measurement": "Organoid Behavior (%) Lost Mass", "setting": "BT-474 organoids; BT-474 organoids, 50 μM, 12 h", "result": 18.5, "unit": "%"}, {"measurement": "Organoid Behavior (%) Stable", "setting": "BT-474 organoids; BT-474 organoids, 50 μM, 24 h", "result": 55.6, "unit": "%"}, {"measurement": "Organoid Behavior (%) Gained Mass", "setting": "BT-474 organoids; BT-474 organoids, 50 μM, 24 h", "result": 9.7, "unit": "%"}, {"measurement": "Organoid Behavior (%) Lost Mass", "setting": "BT-474 organoids; BT-474 organoids, 50 μM, 24 h", "result": 34.7, "unit": "%"}, {"measurement": "Organoid Behavior (%) Gained Mass", "setting": "BT-474 organoids; BT-474 organoids, 50 μM, 48 h", "result": 3.8, "unit": "%"}, {"measurement": "Organoid Behavior (%) Lost Mass", "setting": "BT-474 organoids; BT-474 organoids, 50 μM, 48 h", "result": 84.6, "unit": "%"}, {"measurement": "lowest concentration at which organoids were affected (average mass)", "setting": "BT-474 organoids; BT-474 organoids, 48 h", "result": 1, "unit": "µM"}, {"measurement": "viability at 0.1 µM", "setting": "MCF-7 organoids; [2]", "result": "100 ± 3", "unit": "%"}, {"measurement": "viability at 1 µM", "setting": "MCF-7 organoids; [2]", "result": "101 ± 4", "unit": "%"}, {"measurement": "viability at 10 µM", "setting": "MCF-7 organoids; [2]", "result": "66 ± 7", "unit": "%"}, {"measurement": "viability at 50 µM", "setting": "MCF-7 organoids; [2]", "result": "14 ± 3", "unit": "%"}, {"measurement": "viability at 0.1 µM", "setting": "MCF-7 organoids; [3]", "result": "100 ± 3", "unit": "%"}, {"measurement": "viability at 1 µM", "setting": "MCF-7 organoids; [3]", "result": "101 ± 4", "unit": "%"}, {"measurement": "viability at 10 µM", "setting": "MCF-7 organoids; [3]", "result": "66 ± 7", "unit": "%"}, {"measurement": "viability at 50 µM", "setting": "MCF-7 organoids; [3]", "result": "14 ± 3", "unit": "%"}]}
